Experimental data reported in ChEMBL document CHEMBL1201862, “PubChem BioAssay data set” (2004).
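Briefly, cells in 96-well plates were exposed to five compound concentrations for 48 h, and endpoints were estimated by linear interpolation. The concentration for 50% growth inhibition is given as GI50.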 The source made the active and inactive calls. No stated cut-off is given here; in the data, active = GI50 up to about 1.1 µM and inactive = higher.

Experiments:
Assay in all cases: growth of human tumour cells (NCI), 48 h
MCF7 = tested on: MCF7
LOX IMVI = tested on: LOX IMVI
OVCAR-3 = tested on: OVCAR-3
T47D = tested on: T47D
BT-549 = tested on: BT-549
EKVX = tested on: EKVX
SF-539 = tested on: SF-539
SR = tested on: SR
Malme-3M = tested on: Malme-3M
HOP-92 = tested on: HOP-92
MDA-N = tested on: MDA-N
SK-MEL-2 = tested on: SK-MEL-2
HT-29 = tested on: HT-29
SNB-19 = tested on: SNB-19
RXF 393 = tested on: RXF 393
K562 = tested on: K562
UO-31 = tested on: UO-31
CAKI-1 = tested on: CAKI-1
HCT-15 = tested on: HCT-15

| SMILES | GI50 (MCF7) | GI50 (LOX IMVI) | GI50 (OVCAR-3) | GI50 (T47D) | GI50 (BT-549) | GI50 (EKVX) | GI50 (SF-539) | GI50 (SR) | GI50 (Malme-3M) | GI50 (HOP-92) | GI50 (MDA-N) | GI50 (SK-MEL-2) | GI50 (HT-29) | GI50 (SNB-19) | GI50 (RXF 393) | GI50 (K562) | GI50 (UO-31) | GI50 (CAKI-1) | GI50 (HCT-15) [µM] |
| --- | --- | --- | --- | --- | --- | --- | --- | --- | --- | --- | --- | --- | --- | --- | --- | --- | --- | --- | --- |
| O=C(Nc1cc2cc([N+](=O)[O-])ccc2oc1=O)c1cccs1 | 19.6 µM (inactive) | 20.3 µM (inactive) | 97.5 µM (inactive) | 38.5 µM (inactive) | 69.2 µM (inactive) | 61.7 µM (inactive) | 25.6 µM (inactive) | 35 µM (inactive) | > 100 µM (inactive) | 37.6 µM (inactive) | 46.1 µM (inactive) | 72.9 µM (inactive) | 39.5 µM (inactive) | > 100 µM (inactive) | 4.86 µM (inactive) | 25.9 µM (inactive) | 60.4 µM (inactive) | 48.6 µM (inactive) |  |
| CCC1([N+](=O)[O-])CN(N=O)C1 | > 100 µM (inactive) | > 100 µM (inactive) | > 100 µM (inactive) | > 100 µM (inactive) | > 100 µM (inactive) | > 100 µM (inactive) | > 100 µM (inactive) | > 100 µM (inactive) | > 100 µM (inactive) | 34.4 µM (inactive) | > 100 µM (inactive) | > 100 µM (inactive) | > 100 µM (inactive) | > 100 µM (inactive) | > 100 µM (inactive) | > 100 µM (inactive) | > 100 µM (inactive) | > 100 µM (inactive) | > 100 |
| CN(C)CCNc1ccc2c(=O)n(CCN(C)C)c(=O)n3c4ccc([N+](=O)[O-])cc4c(=O)c1c23 | 0.0716 µM (active) | 0.178 µM (active) | 0.27 µM (active) | 0.653 µM (active) | 0.655 µM (active) | 0.55 µM (active) | 0.277 µM (active) | 0.0815 µM (active) | 0.344 µM (active) | 0.201 µM (active) | 0.287 µM (active) | 0.397 µM (active) | 0.0946 µM (active) | 0.452 µM (active) | 0.198 µM (active) | 0.063 µM (active) | 0.262 µM (active) | 0.498 µM (active) | 0.0966 |
| Clc1cccc2[nH]ncc12 | 64.6 µM (inactive) | 58.1 µM (inactive) | > 100 µM (inactive) | 16.6 µM (inactive) | 36.1 µM (inactive) | 32.4 µM (inactive) | > 100 µM (inactive) | 30.6 µM (inactive) |  | > 100 µM (inactive) | > 100 µM (inactive) | > 100 µM (inactive) | > 100 µM (inactive) | > 100 µM (inactive) | 51.8 µM (inactive) | > 100 µM (inactive) |  | 68.4 µM (inactive) | > 100 |
| O=c1n(CCO)nc2n1CCCN2 | > 100 µM (inactive) | > 100 µM (inactive) | > 100 µM (inactive) | > 100 µM (inactive) | > 100 µM (inactive) | > 100 µM (inactive) | > 100 µM (inactive) | > 100 µM (inactive) | > 100 µM (inactive) | > 100 µM (inactive) | > 100 µM (inactive) | > 100 µM (inactive) | > 100 µM (inactive) | > 100 µM (inactive) | > 100 µM (inactive) | > 100 µM (inactive) | > 100 µM (inactive) |  | > 100 |
| CC(=O)Oc1ccc2c(c1)c1c(OC(C)=O)c3ccccc3c(OC(C)=O)c1n2Cc1cccc(C)c1 | 44.3 µM (inactive) |  | 21.4 µM (inactive) | 21.8 µM (inactive) | 35.1 µM (inactive) | 15.8 µM (inactive) | 25.1 µM (inactive) | 24.3 µM (inactive) | 77.6 µM (inactive) | 1.5 µM (inactive) | 60.4 µM (inactive) | 20 µM (inactive) | > 100 µM (inactive) | 67 µM (inactive) | 38.9 µM (inactive) | 32.1 µM (inactive) | 40 µM (inactive) | 40.3 µM (inactive) | 53.7 |
| C/C(=N\Nc1nc2ccccc2o1)c1cc2ccccc2cn1 | < 0.01 µM (active) |  | < 0.01 µM (active) | < 0.01 µM (active) | 0.173 µM (active) | < 0.01 µM (active) | < 0.0281 µM (active) | 0.112 µM (active) | < 0.01 µM (active) | < 0.0208 µM (active) | 0.942 µM (active) | 2.98 µM (inactive) | < 0.01 µM (active) | 0.547 µM (active) | 0.946 µM (active) | < 0.01 µM (active) | < 0.0147 µM (active) | < 0.01 µM (active) | < 0.01 |
| CC1(C)C(=O)N(O)C(C)(C)N1O | > 10 µM (inactive) | > 10 µM (inactive) | > 10 µM (inactive) | > 10 µM (inactive) | > 10 µM (inactive) | > 10 µM (inactive) | > 10 µM (inactive) | > 10 µM (inactive) | > 10 µM (inactive) | > 10 µM (inactive) | > 10 µM (inactive) | > 10 µM (inactive) | > 10 µM (inactive) | > 10 µM (inactive) | > 10 µM (inactive) | > 10 µM (inactive) |  | > 10 µM (inactive) | > 10 |
| CC1=CC(=O)/C(=C/NC(=S)C(N)=S)C(=O)O1 | > 100 µM (inactive) | > 100 µM (inactive) | > 100 µM (inactive) | > 100 µM (inactive) | > 100 µM (inactive) | > 100 µM (inactive) | > 100 µM (inactive) | 47.2 µM (inactive) |  | > 100 µM (inactive) | > 100 µM (inactive) | > 100 µM (inactive) | > 100 µM (inactive) | > 100 µM (inactive) | > 100 µM (inactive) | > 100 µM (inactive) | > 100 µM (inactive) | > 100 µM (inactive) | > 100 |
| C/C=C1/CN2[C@@H](C3=C[C@@H]4[C@@H]5N(C3=O)c3ccccc3[C@@]53CCN5C/C(=C/C)[C@@H]4C[C@H]53)C[C@@]34c5ccccc5N5C(=O)CC=C([C@H]1C[C@H]23)[C@H]54 [ISOSUNGUCINE] | 3.46 µM (inactive) |  | 5.85 µM (inactive) | 9.93 µM (inactive) | 8.34 µM (inactive) | 5.66 µM (inactive) | 1.11 µM (active) | 1.19 µM (inactive) | 6.04 µM (inactive) | 5.55 µM (inactive) | 3.84 µM (inactive) | 5.32 µM (inactive) | 2.11 µM (inactive) | 7.52 µM (inactive) | 2.17 µM (inactive) | 2.05 µM (inactive) | 2.32 µM (inactive) | 5.86 µM (inactive) | 2.33 |
| O=c1c2cc3c(=O)n4c(cc(-c5ccccc5)c5cc(Cl)ccc54)nc3cc2nc2cc(-c3ccccc3)c3cc(Cl)ccc3n12 | > 100 µM (inactive) | > 100 µM (inactive) | > 100 µM (inactive) | > 100 µM (inactive) | > 100 µM (inactive) | 75.3 µM (inactive) | > 100 µM (inactive) | > 100 µM (inactive) |  | > 100 µM (inactive) | > 100 µM (inactive) | > 100 µM (inactive) | > 100 µM (inactive) | 45.6 µM (inactive) | 34.8 µM (inactive) | > 100 µM (inactive) | 37.8 µM (inactive) | > 100 µM (inactive) | > 100 |
